{"source": "patent US10053497B2", "about": "“Therapeutic epitopes and uses thereof” (OXFORD UNIVERSITY INNOVATION LIMITED, priority 2002, dated 2018)", "key": {"[1]": {"test_system": "PBMC of HLA-DQ2+ coeliac subjects", "assay": "IFNγ ELISpot, comprehensive gliadin epitope mapping in HLA-DQ2+ coeliac subjects after gluten challenge", "format": "cell-based, human", "details": "for Mean (SEM) bioactivity of deamidated peptides as % of P04722 E85: 20 μg/ml, HLA-DQ2 coeliac subjects C01-5; for IFNg ELISpot response compared to P04722 77-93 QE85 (SEQ ID NO: 27): mean (SEM): peptides grouped by structure", "method_in_brief": "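PBMC (2-8×10^5/well) from HLA-DQ2+ coeliac subjects on gluten-free diet were taken before and on day 6/7 after 3-day bread challenge. They were incubated overnight with 20mer peptides or pools (20 μg/ml each), ± tTG deamidation (tTG 64 μg/ml in wells), in RPMI/10% human AB serum. Net sfc/million minus blank; single-peptide responses as % of P04722 77-93 QE85.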"}, "PBMC of coeliac patients": {"test_system": "PBMC of coeliac patients", "assay": "ELISpot of the 652 peptides in patients challenged with wheat or rye", "format": "cell-based, human", "details": "for Dominance among individual peptide responses, wheat: wheat challenge; for Dominance among individual peptide responses, rye: rye challenge", "description": "Dominance depends on wheat or rye. For wheat, dominant peptides include peptide numbers 89, 90 and 91 (referring to sequence numbers in Table 23) (SEQ ID NO: 195, SEQ ID NO:196 and SEQ ID NO:197 respectively). For rye, dominant peptides include peptide numbers 368, 369, 370, 371, and 372 (referring to sequence numbers in Table 23) (SEQ ID NO:474, SEQ ID NO:475, SEQ ID NO:476, SEQ ID NO:477 and SEQ ID NO:478 respectively)."}}, "data": [{"substance": "89: Table 23 20mer, SEQ ID NO: 195 (PQLPYPQPQLPYPQPQLPYP) [Peptide 89]", "values": [{"measurement": "Mean (SEM) bioactivity of deamidated peptides as % of P04722 E85", "setting": "[1]", "value": "94 (18) %"}, {"measurement": "IFNg ELISpot response compared to P04722 77-93 QE85 (SEQ ID NO: 27): mean (SEM)", "setting": "[1]", "value": "94 (18) %"}, {"measurement": "Dominance among individual peptide responses, wheat", "setting": "PBMC of coeliac patients", "value": "dominant"}]}, {"substance": "90: Table 23 20mer, SEQ ID NO:196 (PQLPYPQPQLPYPQPQPFRP) [Peptide 90]", "values": [{"measurement": "Mean (SEM) bioactivity of deamidated peptides as % of P04722 E85", "setting": "[1]", "value": "87 (16) %"}, {"measurement": "IFNg ELISpot response compared to P04722 77-93 QE85 (SEQ ID NO: 27): mean (SEM)", "setting": "[1]", "value": "87 (16) %"}, {"measurement": "Dominance among individual peptide responses, wheat", "setting": "PBMC of coeliac patients", "value": "dominant"}]}, {"substance": "91: Table 23 20mer, SEQ ID NO:197 (PQPFPPQLPYPQPQLPYPQP) [Peptide 91]", "values": [{"measurement": "Mean (SEM) bioactivity of deamidated peptides as % of P04722 E85", "setting": "[1]", "value": "89 (12) %"}, {"measurement": "IFNg ELISpot response compared to P04722 77-93 QE85 (SEQ ID NO: 27): mean (SEM)", "setting": "[1]", "value": "89 (12) %"}, {"measurement": "Dominance among individual peptide responses, wheat", "setting": "PBMC of coeliac patients", "value": "dominant"}]}, {"substance": "368: Table 23 20mer, SEQ ID NO:474 (QQFPQPQQPQQPFPQQPQQQ) [Peptide 368]", "values": [{"measurement": "Mean (SEM) bioactivity of deamidated peptides as % of P04722 E85", "setting": "[1]", "value": "14 (7) %"}, {"measurement": "Dominance among individual peptide responses, rye", "setting": "PBMC of coeliac patients", "value": "dominant"}]}, {"substance": "369: Table 23 20mer, SEQ ID NO:475 (QQFPQTQQPQQPFPQPQQTF) [Peptide 369]", "values": [{"measurement": "Dominance among individual peptide responses, rye", "setting": "PBMC of coeliac patients", "value": "dominant"}]}, {"substance": "370: Table 23 20mer, SEQ ID NO:476 (PQQQFLQPQQPFPQQPQQPY) [Peptide 370]", "values": [{"measurement": "Mean (SEM) bioactivity of deamidated peptides as % of P04722 E85", "setting": "[1]", "value": "11 (5) %"}, {"measurement": "Dominance among individual peptide responses, rye", "setting": "PBMC of coeliac patients", "value": "dominant"}]}, {"substance": "371: Table 23 20mer, SEQ ID NO:477 (PQQQFIQPQQPFPQQPQQTY) [Peptide 371]", "values": [{"measurement": "Mean (SEM) bioactivity of deamidated peptides as % of P04722 E85", "setting": "[1]", "value": "22 (10) %"}, {"measurement": "IFNg ELISpot response compared to P04722 77-93 QE85 (SEQ ID NO: 27): mean (SEM)", "setting": "[1]", "value": "22 (10) %"}, {"measurement": "Dominance among individual peptide responses, rye", "setting": "PBMC of coeliac patients", "value": "dominant"}]}, {"substance": "372: Table 23 20mer, SEQ ID NO:478 (PQQQFIQPQQPQQTYPQRPQ) [Peptide 372]", "values": [{"measurement": "Dominance among individual peptide responses, rye", "setting": "PBMC of coeliac patients", "value": "dominant"}]}]}
